In one experiment the target is T1, GlyT2 Y430F mutant (Homo sapiens, UniProt Q9Y345, Y430F).
T1 sequence (Q9Y345 1-797 Y430F): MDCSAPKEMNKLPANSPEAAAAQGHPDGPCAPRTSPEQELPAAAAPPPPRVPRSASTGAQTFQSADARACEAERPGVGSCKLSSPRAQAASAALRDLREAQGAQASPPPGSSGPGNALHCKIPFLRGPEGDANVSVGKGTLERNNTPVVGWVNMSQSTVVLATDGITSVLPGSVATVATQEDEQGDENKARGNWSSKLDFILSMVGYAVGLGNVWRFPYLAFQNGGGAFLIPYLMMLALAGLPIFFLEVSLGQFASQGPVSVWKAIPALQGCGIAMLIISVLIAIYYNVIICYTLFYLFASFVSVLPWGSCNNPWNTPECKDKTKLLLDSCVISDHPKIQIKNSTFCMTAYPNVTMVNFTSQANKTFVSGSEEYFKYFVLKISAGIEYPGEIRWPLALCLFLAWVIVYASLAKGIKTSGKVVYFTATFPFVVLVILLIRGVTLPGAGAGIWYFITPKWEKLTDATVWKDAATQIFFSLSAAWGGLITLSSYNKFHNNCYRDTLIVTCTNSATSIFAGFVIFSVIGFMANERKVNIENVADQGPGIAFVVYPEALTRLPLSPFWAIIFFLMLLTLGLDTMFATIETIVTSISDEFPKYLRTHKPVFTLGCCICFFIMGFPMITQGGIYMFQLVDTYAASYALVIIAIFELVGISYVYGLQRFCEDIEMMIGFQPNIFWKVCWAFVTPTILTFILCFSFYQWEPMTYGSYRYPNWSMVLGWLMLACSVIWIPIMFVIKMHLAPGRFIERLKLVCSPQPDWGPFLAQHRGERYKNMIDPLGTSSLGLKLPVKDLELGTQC
The note with it: read-out: Glycine EC50; Y430F (TM5). The text has this: (§1) GlyT2a (referred to herein as GlyT2) was subcloned into the plasmid oocyte transcription vector (pOTV) for expression in Xenopus laevis oocytes. Oligonucleotide primers incorporating desired mutations were synthesized by Sigma-Aldrich and used to generate point mutations in the GlyT2 cDNA/pOTV construct using the Q5 site-directed mutagenesis kit (New England Biolabs [Genesearch]). Amplified PCR products were transformed into chemically competent E. coli cells and purified using the GeneJET Plasmid Miniprep Kit (Thermo Fisher Scientific). Purified plasmid DNA was sequence-verified by the Australian Genome Research Facility. pOTV constructs were linearized with the restriction enzyme SpeI (New England Biolabs [Genesearch]), and RNA was transcribed by T7 RNA polymerase using the mMESSAGE mMACHINE T7 kit (Thermo Fisher Scientific).
(§2) The transport activity of GlyT2 is an electrogenic process as it couples the transport of glycine to the co-transport of 3 Na^+ and 1 Cl^− and thus can be measured using two-electrode voltage-clamp electrophysiology. Oocytes expressing GlyTs were voltage-clamped at −60 mV, and glycine-induced whole-cell currents were measured using a GeneClamp 500 amplifier (Axon Instruments), and a PowerLab 2/26 chart recorder (ADInstruments) and LabChart Software (ADInstruments).
(§3) Functionality of WT and mutant GlyT2 transporters was assessed by applying increasing concentrations of glycine (1–3,000 µM) in ND96 until a stable current was achieved. Glycine concentrations were applied individually and completely removed from the system via washing with recording buffer before proceeding to the next concentration. EC50 values for each transporter were determined by fitting concentration–response data to the modified Michaelis–Menten equation: I=([Gly].Imax)/(EC50+[Gly]), where I is current in nA, [Gly] is the concentration of glycine, Imax is the current generated by a maximal concentration of glycine, and EC50 is the concentration of glycine that generates a half-maximal current.

Another experiment has as its target T2, GlyT2 Y430L mutant (Homo sapiens, UniProt Q9Y345, Y430L).
T2 sequence (Q9Y345 1-797 Y430L): T1 sequence (Q9Y345 1-797 Y430F) with F430L
The note with it: read-out: Glycine EC50; Y430L (TM5).
Source text: as §1, §2, §3

Residue numbers refer to the chain shown, from its start.

By EC50 is commonly meant the concentration needed to bring the measured effect to its halfway point. In the case of `NCC(=O)O` [Glycine, glycine], the EC50 on GlyT2 Y430F mutant was determined as 12 µM; on GlyT2 Y430L mutant, 19 µM.

For the origin of these results see PMC9873984, “Membrane cholesterol regulates inhibition and substrate transport by the glycine transporter, GlyT2” (Life Science Alliance, 2023).
